# According to publication PMC6835763, “Influence of Short Cationic Lipopeptides with Fatty Acids of Different Chain Lengths on Bacterial Biofilms Formed on Polystyrene and Hydrogel Surfaces” (Pharmaceutics, 2019):
# Where two headings read alike, the source gives them in different places. Where a SMILES comes first, the peptide text is derived from it. Bridges are numbered along the chain shown (N, C = ends). Roman numbers before positions name the chains, in order. The star is where a group is joined. Palmitoyl = CCCCCCCCCCCCCCCC(=O)*; Myristoyl = CCCCCCCCCCCCCC(=O)*; Lauroyl = CCCCCCCCCCCC(=O)*
# Tests used:
# [1] = RP-HPLC retention to evaluate the hydrophobicity of lipopeptides; type: physicochemical; conditions: chromatographic, Luna C18(2) 3.0 × 100 mm, 5.0 µm, linear 20–80% acetonitrile in water over 10 min, 0.1% formic acid, 0.5 mL/min, UV 214 nm, used to evaluate hydrophobicity
# Method: The crude peptide was lyophilized and subsequently purified by RP-HPLC. The purifications were carried out on a Phenomenex Gemini-NX C18 column (21.20 × 100 mm, 5.0 µm particle size, and 110 Å pore size). Acetonitrile and water, both containing 0.1% of TFA, were used as the mobile phase. UV detection at 214 nm was used. The crude peptides were eluted with a linear 20–80% acetonitrile gradient in deionized water over 60 min at a flow rate of 10.0 mL/min. The purity and identity of the peptides were confirmed with LC-MS analysis. A Waters Alliance e2695 RP-HPLC system (Waters, Milford, MA, USA) with Waters 2998 PDA (Waters, Milford, MA, USA) and Acquity QDA detectors (Empower®3 software, Database Version 7.21.00.00) was used. All analyses were carried out on a Phenomenex, Luna C18(2) column (3.0 × 100 mm, 5.0 µm particle size, 100 Å pore size). The samples were analyzed with a linear 20–80% acetonitrile gradient in deionized water over 10 min at a flow rate of 0.5 mL/min with UV detection at 214 nm. Both eluents contained 0.1% (v/v) of formic acid. The pure fractions (>95%, by HPLC analysis) were collected and lyophilized. The retention time and percentage of ACN (%) at which each peptide was eluted are included in Table 1 to evaluate the hydrophobicity of lipopeptides. The identity of all compounds was confirmed using mass spectrometry (Waters Alliance e2695 system with Acquity QDA detector, Waters, Milford, MA, USA) with electrospray ionization in positive ion mode (ESI-MS). In this mode, a proton is attached to basic moieties (amine groups, guanidine groups). The theoretical mass of the peptide was calculated and then expected ions (m/z—mass to charge ratio) were compared to measured m/z. The results are presented in Table 1, and mass spectra are presented in the Supplementary Materials.
# [2] = tested on: Staphylococcus epidermidis ATCC 14990; type: cell-based
# Method: (§1) The biofilms of bacteria associated with the biofilm-related infections were cultured on 96-well flat bottom PS and on CL placed in 24-well plates. The bacteria at initial inoculums of 5 × 10^8 CFU/mL in MHB II were added to the plates and incubated at 37 °C under aerobic conditions. After 24 h of incubation, all cultures were rinsed three times with PBS and fresh medium was added. Subsequently, the obtained biofilm cultures were exposed to solutions of antimicrobials applied at graded concentrations ranging from 1 to 512 μg/mL for 24 h at 37 °C. The anti-biofilm activity of antimicrobials was visualized by resazurin (final concentration per sample = 0.005%) in the same way as in the MBFIC assay. All experiments were performed in triplicate and included growth controls (positive control: bacterial suspension without antimicrobials) and sterility controls (negative controls: sterile MBH II medium).
# [3] = tested on: Pseudomonas aeruginosa ATCC 9027; type: cell-based
# Method: as §1
# [4] = tested on: Escherichia coli ATCC 25922; type: cell-based
# Method: as §1
# [5] = tested on: Proteus mirabilis PCM 543; type: cell-based
# Method: as §1
# [6] = tested on: Enterococcus faecalis ATCC 29212; type: cell-based
# Method: as §1
# [7] = tested on: Staphylococcus aureus ATCC 25923; type: cell-based
# Method: as §1
# [8] = tested on: Staphylococcus epidermidis ATCC 14990; type: cell-based; remark: listed apart in the source
# Method: (§2) The reference strains of gram-positive and gram-negative bacteria (Table 2) were obtained from the Polish Collection of Microorganisms (Polish Academy of Science, Wroclaw, Poland). The microorganisms were cultured in Muller Hinton Broth II (MHB II, Biocorp, Warsaw, Poland), overnight, at 37 °C. The MICs of synthetic lipopeptides and conventional antimicrobials were determined using the broth microdilution method according to the Clinical and Laboratory Standard Institute (CLSI) guidelines on reference strains. […] The PS were incubated under aerobic conditions at 37 °C for 18 h. The MIC (μg/mL) was assumed as the lowest concentration of the compound that inhibited the growth of the microorganisms. All experiments were performed in triplicate and included the growth and sterility controls.
# [9] = tested on: Pseudomonas aeruginosa ATCC 9027; type: cell-based; remark: listed apart in the source
# Method: as §2
# [10] = tested on: Escherichia coli ATCC 25922; type: cell-based; remark: listed apart in the source
# Method: as §2
# [11] = tested on: Enterococcus faecalis ATCC 29212; type: cell-based; remark: listed apart in the source
# Method: as §2
# [12] = tested on: Staphylococcus aureus ATCC 25923; type: cell-based; remark: listed apart in the source
# Method: as §2
# [13] = tested on: Proteus mirabilis PCM 543; type: cell-based; remark: listed apart in the source
# Method: as §2
# [14] = 24 h biofilm on 96-well flat bottom PS, 5 × 10^8 CFU/mL in MHB II, exposure 1–512 μg/mL for 24 h at 37 °C, resazurin, triplicate
# [15] = 24 h biofilm on contact lenses (CL) in 24-well plates, 5 × 10^8 CFU/mL in MHB II, exposure 1–512 μg/mL for 24 h at 37 °C, resazurin, triplicate
# [16] = MHB II, ca. 5 × 10^6 CFU/mL, 96-well PS, 1–512 μg/mL, 37 °C, 18 h, triplicate
Compound,% ACN at which the peptide was eluted [1] [%],tR' (adjusted retention time) [1] [min],"MBEC S. epidermidis, CL ([2]; ATCC 14990, 24 h) [µg/mL]","MBEC P. aeruginosa, CL ([3]; ATCC 9027, 24 h)","MBEC E. coli, CL ([4]; ATCC 25922, 24 h)","MBEC P. mirabilis, CL ([5]; PCM 543, 24 h)","MBEC E. faecalis, CL ([6]; ATCC 29212, 24 h)","MBEC S. aureus, CL ([7]; ATCC 25923, 24 h)","MIC S. epidermidis ([8]; ATCC 14990, 18 h) [µg/mL]","MIC P. aeruginosa ([9]; ATCC 9027, 18 h) [µg/mL]","MIC E. coli ([10]; ATCC 25922, 18 h) [µg/mL]","MIC E. faecalis ([11]; ATCC 29212, 18 h) [µg/mL]","MIC S. aureus ([12]; ATCC 25923, 18 h) [µg/mL]","MIC P. mirabilis ([13]; PCM 543, 18 h) [µg/mL]",other results
"CCCCCCCCCCCC(=O)N[C@@H](CCCCN)C(=O)N[C@@H](CCCCN)C(=O)N[C@@H](CSSC[C@H](NC(=O)[C@H](CCCCN)NC(=O)[C@H](CCCCN)NC(=O)CCCCCCCCCCC)C(N)=O)C(N)=O [Lipopeptide 1, C12-KKC-NH2] (I: Lauroyl-Lys-Lys-Cys-NH2 / II: Lauroyl-Lys-Lys-Cys-NH2; disulfide I:3-II:3)",38.6,3.10,128,256 µg/mL,256/256 μg/mL,>512/>512 μg/mL,128 µg/mL,256 µg/mL,2,32,16,4,8,–,–
"CCCCCCCCCCCCCC(=O)N[C@@H](CCCCN)C(=O)N[C@@H](CCCCN)C(=O)N[C@@H](CSSC[C@H](NC(=O)[C@H](CCCCN)NC(=O)[C@H](CCCCN)NC(=O)CCCCCCCCCCCCC)C(N)=O)C(N)=O [Lipopeptide 3, C14-KKC-NH2] (I: Myristoyl-Lys-Lys-Cys-NH2 / II: Myristoyl-Lys-Lys-Cys-NH2; disulfide I:3-II:3)",43.3,3.88,512,> 512 µg/mL,512/512 μg/mL,512/>512 μg/mL,256/256 μg/mL,128/128 μg/mL,4,128,64,16,32,512,–
"CCCCCCCCCCCCCC(=O)N[C@@H](CCCCN)C(=O)N[C@@H](CCCNC(=N)N)C(N)=O [Lipopeptide 4, C14-KR-NH2] (Myristoyl-Lys-Arg-NH2)",39.7,3.29,32,>512/>512 μg/mL,256 µg/mL,>512/>512 μg/mL,256 µg/mL,512 µg/mL,4,128,32,32,32,512,–
"CCCCCCCCCCCCCCCC(=O)N[C@@H](CCCCN)C(=O)NCC(=O)N[C@@H](CCCCN)C(N)=O [Lipopeptide 5, C16-KGK-NH2] (Palmitoyl-Lys-Gly-Lys-NH2)",43.7,3.95,128,256 µg/mL,64 µg/mL,>512/>512 μg/mL,32 µg/mL,512 µg/mL,32,256,16,32,64,512,"concentrations eliminating the EC biofilm (MBEC range) ([4]; ATCC 25922, 24 h): 64 to 128 µg/mL"
"CCCCCCCCCCCCCCCC(=O)N[C@@H](CCCCN)C(=O)N[C@@H](CCCCN)C(=O)N[C@@H](CCCCN)C(N)=O [Lipopeptide 7, C16-KKK-NH2]",37.9,2.98,64,512/>512 μg/mL,128 µg/mL,512/>512 μg/mL,16 µg/mL,256 µg/mL,16,64,32,16,64,256,"concentrations eliminating the EC biofilm (MBEC range) ([4]; ATCC 25922, 24 h): 64 to 128 µg/mL"
"CCCCCCCCCCCCCCCC(=O)N[C@@H](CCCCN)C(=O)N[C@@H](CCCNC(=N)N)C(N)=O [Lipopeptide 8, C16-KR-NH2] (Palmitoyl-Lys-Arg-NH2)",44.3,4.06,32,32 µg/mL,128 µg/mL,> 512 µg/mL,64/64 μg/mL,128 µg/mL,8,128,64,64,32,512,–
(C10)2-KKKK-NH2 [Lipopeptide 9],39.6,3.27,–,–,–,–,–,–,–,–,–,–,–,–,"MBEC S. epidermidis, PS [2, 14]: 16 µg/mL; MBEC S. epidermidis, CL [2, 15]: 64 µg/mL; MBEC P. aeruginosa, PS [3, 14]: 512 µg/mL; MBEC P. aeruginosa, CL [3, 15]: 256 µg/mL; MBEC E. coli, PS [4, 14]: 64 µg/mL; MBEC E. coli, CL [4, 15]: 128 µg/mL; concentrations eliminating the EC biofilm (MBEC range) ([4]; range over PS and CL): 64 to 128 µg/mL; MBEC P. mirabilis, PS [5, 14]: >512/>512 μg/mL; MBEC P. mirabilis, CL [5, 15]: >512/>512 μg/mL; MBEC E. faecalis, PS [6, 14]: 32 µg/mL; MBEC E. faecalis, CL [6, 15]: 128 µg/mL; MBEC S. aureus, PS [7, 14]: 64 µg/mL; MBEC S. aureus, CL [7, 15]: 128 µg/mL; MIC S. epidermidis [8, 16]: 2 µg/mL; MIC P. aeruginosa [9, 16]: 16 µg/mL; MIC E. coli [10, 16]: 16 µg/mL; MIC P. mirabilis [13, 16]: 512 µg/mL; MIC E. faecalis [11, 16]: 16 µg/mL; MIC S. aureus [12, 16]: 8 µg/mL"
